# Measured values: patent US7132513B2, “Bifunctional chelating agent” (European Community, priority 2000, dated 2006)
# Assays:
# [1] = complexation properties with ^225Ac; type: physicochemical; conditions: compared with non-functionalised chelating agents EDTA, DTPA, DOTA, PEPA, HEHA, EDTMP
# Method: (§1) Different non-functionalised chelating agents (commercially available or readily synthesised in the laboratory) bearing aminocarboxylate groups (EDTA, DTPA, DOTA, PEPA, and HEHA) or aminophosphonate groups (EDTMP) were tested for their complexation properties with ^225Ac and ^213Bi. […] Polyaza polycarboxylic macrocycles are known to form thermodynamically stable complexes with large metal ions such as actinides and lanthanides.
# [2] = complexation properties with ^213Bi; type: physicochemical; conditions: non-functionalised chelating agents tested
# Method: as §1
compound,measurement,setting,value
"O=C(O)CN1CCN(CC(=O)O)CCN(CC(=O)O)CCN(CC(=O)O)CCN(CC(=O)O)CCN(CC(=O)O)CC1 [HEHA, 1,4,7,10,13,16-hexacarboxylmethyl-1,4,7,10,13,16-hexaazacyclooctadecane]",^225Ac complexation,[1],best candidate
same,chelation of ^213Bi,[2],good chelating agent
